# Source: patent publication US11045447B2, “Methods for inducing synaptogenesis with synaptic growth factor activating compounds” ([…], INC., priority 2018, dated 2021)
# “And” between values parts separate entries of the source, which are not always exact repeats. Equal values may be shown once. “Also recorded” adds a separate entry of the source.
# Experiments:
# Format in all cases: in vivo, human
# [1] = test system: patients with advanced Alzheimer's disease; test: Severe Impairment Battery (SIB) in double-blind, randomized, placebo-controlled trial; set-up: key to SIB Total LS Mean change from baseline (MMRM) / SIB Total LS Mean change (MMRM with memantine covariate) / SIB Delta from baseline, Mean (unadjusted): change from baseline in SIB total score; low scores = greater impairment; details: for SIB Total Difference vs. Placebo (MMRM) / SIB Total LS Mean change from baseline (MMRM): 20 μg iv; for SIB Delta from baseline, Mean (unadjusted): Low dose (20)
# Method: In a double-blind, randomized, placebo-controlled trial, bryostatin was administered by intravenous infusion (˜45 minutes) to patients with advanced Alzheimer's disease for 12 weeks at doses of 20 or 40 μg. Randomization was stratified at baseline by severe (MMSE-2, 4-9) and moderate (MMSE-2, 10-15) dementia, wherein MMSE-2 refers to Mini-Mental State Examination, version 2. The MMSE or Folstein test is a 30-point questionnaire that is used extensively in clinical and research settings to measure cognitive impairment. Low scores indicate greater impairment. Version 2 of the MMSE was published in 2010, expanding the original questionnaire's usefulness in populations with milder forms of cognitive impairment. […] Importantly, this cognitive improvement persisted and increased 30 days after all bryostatin dosing had been completed.
# (§1) Adults aged 55-85 with cognitive deficits present for at least 2 years, MMSE-2 of 4-15, inclusive, and a diagnosis of Alzheimer's dementia were randomly assigned to receive blinded intravenous infusions of bryostatin 24 μg or matching placebo at weeks 0 and 1. The 24 μg and 48 μg doses during the first two weeks of the 20 and 40 μg protocols respectively were considered to be “loading” doses thought to be beneficial from prior experience with Compassionate Use trial patients. Nelson et al., Alzheimers Dis. 2017 58: 521-535. In one arm, the two 24 μg doses were followed by 20 μg doses at weeks 5, 7, 9 and 11 with the Severe Impairment Battery (SIB) measured at baseline and weeks 5, 9, 13, and 15. In a second arm, the two 48 μg doses at weeks 0 and 1 were followed by 40 μg doses at weeks 5, 7, 9, and 11 with the SIB measured at baseline and weeks 5, 9, 13, and 15. The subjects were stratified by MMSE-2 in two strata: Stratum 1 (4-9) and Stratum 2 (10-15). The first primary endpoint was safety and tolerability, assessed by treatment emergent adverse events (TEAEs) with a sample size of 150 subjects randomized 1:1:1. Although efficacy was the secondary measure, the primary efficacy endpoint was SIB improvement at week 13 evaluated using a mixed model for repeated measures. A secondary efficacy endpoint was ADCS-ADL Sev. The primary safety population included all subjects who received at least 1 dose of study drug, and efficacy was evaluated in a modified intent to treat (mITT) population that received at least 1 dose of study drug and had at least one treatment evaluation. Efficacy was evaluated both as a primary end-point in the modified intent-to-treat (mITT) population and also as a primary end point in a Completers population that included all patients that completed the entire protocols as described above.
# The SIB efficacy measurement at 30 days (week 15) post dosing—after all dosing had been completed (last dose administered at week 11)—was a pre-specified exploratory endpoint. Week 15 results were only included for subjects who were not re-randomized. The mixed model assumes missing at random, but order of enrollment in the trial was not random. Since order of enrollment was not random, the assumption of missing at random is not met. For this reason, only including week 15 for those who were not re-randomized is an appropriate way to estimate week 15 results, but not an appropriate way to estimate results at the earlier visits. For this reason, estimates up through week 13 are from a mixed model that only included data through week 13 and the week 15 estimates are from a separate model. Results were generated using a mixed model with repeated measures predicting change from baseline in SIB Total Score as the response variable and using baseline score, baseline MMSE strata, treatment, visit (categorical), and visit (treatment) as predictors. […]
# [2] = test system: patients with advanced Alzheimer's disease; test: Safety and tolerability (treatment emergent adverse events) in the same trial; details: 40 μg iv, 12 weeks
# Method: Adults aged 55-85 with cognitive deficits present for at least 2 years, MMSE-2 of 4-15, inclusive, and a diagnosis of Alzheimer's dementia were randomly assigned to receive blinded intravenous infusions of bryostatin 24 μg or matching placebo at weeks 0 and 1. The 24 μg and 48 μg doses during the first two weeks of the 20 and 40 μg protocols respectively were considered to be “loading” doses thought to be beneficial from prior experience with Compassionate Use trial patients. Nelson et al., Alzheimers Dis. 2017 58: 521-535. In one arm, the two 24 μg doses were followed by 20 μg doses at weeks 5, 7, 9 and 11 with the Severe Impairment Battery (SIB) measured at baseline and weeks 5, 9, 13, and 15. In a second arm, the two 48 μg doses at weeks 0 and 1 were followed by 40 μg doses at weeks 5, 7, 9, and 11 with the SIB measured at baseline and weeks 5, 9, 13, and 15. The subjects were stratified by MMSE-2 in two strata: Stratum 1 (4-9) and Stratum 2 (10-15). The first primary endpoint was safety and tolerability, assessed by treatment emergent adverse events (TEAEs) with a sample size of 150 subjects randomized 1:1:1. Although efficacy was the secondary measure, the primary efficacy endpoint was SIB improvement at week 13 evaluated using a mixed model for repeated measures. A secondary efficacy endpoint was ADCS-ADL Sev. […]
# [3] = test system: patients with advanced Alzheimer's disease; test: ADCS-ADL-SIV (secondary efficacy endpoint) in the same trial
# Method: as §1
# [4] = Week 15 (30 days post dosing), Completer
# [5] = Week 15 (30 days post dosing), FAS
# [6] = 20 μg, Week 5, Completer, With Memantine
# [7] = 20 μg, Week 5, Completer, Without Memantine
# [8] = 20 μg, Week 5, FAS, With Memantine
# [9] = 20 μg, Week 5, FAS, Without Memantine
# [10] = 20 μg, Week 9, Completer, With Memantine
# [11] = 20 μg, Week 9, Completer, Without Memantine
# [12] = 20 μg, Week 9, FAS, With Memantine
# [13] = 20 μg, Week 9, FAS, Without Memantine
# [14] = 20 μg, Week 13, Completer, With Memantine
# [15] = 20 μg, Week 13, Completer, Without Memantine
# [16] = 20 μg, Week 13, FAS, With Memantine
# [17] = 20 μg, Week 13, FAS, Without Memantine
# [18] = 20 μg, Week 15, Completer, With Memantine
# [19] = 20 μg, Week 15, Completer, Without Memantine
# [20] = 20 μg, Week 15, FAS, With Memantine
# [21] = 20 μg, Week 15, FAS, Without Memantine
compound,measurement,setting,value
"CCC/C=C/C=C/C(=O)O[C@H]1/C(=C/C(=O)OC)C[C@H]2C[C@H]([C@@H](C)O)OC(=O)C[C@H](O)C[C@@H]3C[C@H](OC(C)=O)C(C)(C)[C@](O)(C[C@@H]4C/C(=C/C(=O)OC)C[C@H](/C=C/C(C)(C)[C@]1(O)O2)O4)O3 [Bryostatin, bryostatin-1]",SIB versus baseline and placebo (in words),"[1]; 20 μg dose, throughout the 13-week trial",sustained improvement in SIB
same,SIB Total Difference vs. Placebo (MMRM),"[1]; Week 5, Completer",4.00
same,SIB Total LS Mean change from baseline (MMRM),"[1]; Week 5, Completer",1.67
same,SIB Total Difference vs. Placebo (MMRM),"[1]; Week 5, FAS",2.96
same,SIB Total LS Mean change from baseline (MMRM),"[1]; Week 5, FAS",1.18
same,SIB Total Difference vs. Placebo (MMRM),"[1]; Week 9, Completer",1.85
same,SIB Total LS Mean change from baseline (MMRM),"[1]; Week 9, Completer",1.28
same,SIB Total Difference vs. Placebo (MMRM),"[1]; Week 9, FAS",1.03
same,SIB Total LS Mean change from baseline (MMRM),"[1]; Week 9, FAS",0.94
same,SIB Total Difference vs. Placebo (MMRM),"[1]; Week 13, Completer",2.63
same,SIB Total LS Mean change from baseline (MMRM),"[1]; Week 13, Completer",1.51
same,SIB Total Difference vs. Placebo (MMRM),"[1]; Week 13, Completer, listed as bryostatin",2.6
same,SIB Total Difference vs. Placebo (MMRM),"[1]; Week 13, FAS",1.94
same,SIB Total LS Mean change from baseline (MMRM),"[1]; Week 13, FAS",1.16
same,SIB Total Difference vs. Placebo (MMRM),[1]; [4],4.09
same,SIB Total LS Mean change from baseline (MMRM),[1]; [4],1.96
same,SIB Total Difference vs. Placebo (MMRM),"[1]; Week 15 (30 days post dosing), Completer, listed as bryostatin",4.0 and 4.09
same,SIB Total Difference vs. Placebo (MMRM),[1]; [5],3.59
same,SIB Total LS Mean change from baseline (MMRM),[1]; [5],1.77
same,SIB Total Difference vs. Placebo (MMRM with memantine covariate),[1]; [6],2.94
same,SIB Total LS Mean change (MMRM with memantine covariate),[1]; [6],0.61
same,SIB Total Difference vs. Placebo (MMRM with memantine covariate),[1]; [7],5.38
same,SIB Total LS Mean change (MMRM with memantine covariate),[1]; [7],3.22
same,SIB Total Difference vs. Placebo (MMRM with memantine covariate),[1]; [8],1.96
same,SIB Total LS Mean change (MMRM with memantine covariate),[1]; [8],0.26
same,SIB Total Difference vs. Placebo (MMRM with memantine covariate),[1]; [9],4.48
same,SIB Total LS Mean change (MMRM with memantine covariate),[1]; [9],2.74
same,SIB Total Difference vs. Placebo (MMRM with memantine covariate),[1]; [10],0.90
same,SIB Total LS Mean change (MMRM with memantine covariate),[1]; [10],−0.16
same,SIB Total Difference vs. Placebo (MMRM with memantine covariate),[1]; [11],2.66
same,SIB Total LS Mean change (MMRM with memantine covariate),[1]; [11],3.34
same,SIB Total Difference vs. Placebo (MMRM with memantine covariate),[1]; [12],0.09
same,SIB Total LS Mean change (MMRM with memantine covariate),[1]; [12],−0.33
same,SIB Total Difference vs. Placebo (MMRM with memantine covariate),[1]; [13],2.08
same,SIB Total LS Mean change (MMRM with memantine covariate),[1]; [13],2.95
same,SIB Total Difference vs. Placebo (MMRM with memantine covariate),[1]; [14],0.56
same,SIB Total LS Mean change (MMRM with memantine covariate),[1]; [14],−0.39
same,SIB Total Difference vs. Placebo (MMRM with memantine covariate),[1]; [15],5.53
same,SIB Total LS Mean change (MMRM with memantine covariate),[1]; [15],4.22
same,SIB Total Difference vs. Placebo (MMRM with memantine covariate),[1]; [16],−0.14
same,SIB Total LS Mean change (MMRM with memantine covariate),[1]; [16],−0.60
same,SIB Total Difference vs. Placebo (MMRM with memantine covariate),[1]; [17],5.11
same,SIB Total LS Mean change (MMRM with memantine covariate),[1]; [17],3.83
same,SIB Total Difference vs. Placebo (MMRM with memantine covariate),[1]; [18],1.45
same,SIB Total LS Mean change (MMRM with memantine covariate),[1]; [18],−0.71
same,SIB Total Difference vs. Placebo (MMRM with memantine covariate),[1]; [19],6.36
same,SIB Total LS Mean change (MMRM with memantine covariate),[1]; [19],6.24
same,SIB Total Difference vs. Placebo (MMRM with memantine covariate),[1]; [20],0.79
same,SIB Total LS Mean change (MMRM with memantine covariate),[1]; [20],−0.83
same,SIB Total Difference vs. Placebo (MMRM with memantine covariate),[1]; [21],5.93
same,SIB Total LS Mean change (MMRM with memantine covariate),[1]; [21],5.88
same,"Mean slope of SIB over time, Weighted Slope","[1]; 20 μg, weighted by number of non-zero SIB scores, second column group (memantine exposed, stratum not given)",−0.099
same,SIB versus baseline and placebo (in words),[1]; 40 μg dose,lack of efficacy; also recorded: no SIB improvement
same,"SIB Delta from baseline, Mean (unadjusted)","[1]; Ave of Week 13 and 15, Memantine Exposed Patients, FAS",−0.727
same,"SIB Delta from baseline, Mean (unadjusted)","[1]; Ave of Week 13 and 15, Memantine Treatment-Naïve Patients, FAS",5.406
same,"SIB Delta from baseline, Mean (unadjusted)","[1]; Week 5, Memantine Exposed Patients, FAS",0.077
same,"SIB Delta from baseline, Mean (unadjusted)","[1]; Week 5, Memantine Treatment-Naïve Patients, FAS",3.444
same,"SIB Delta from baseline, Mean (unadjusted)","[1]; Week 9, Memantine Exposed Patients, FAS",−0.087
same,"SIB Delta from baseline, Mean (unadjusted)","[1]; Week 9, Memantine Treatment-Naïve Patients, FAS",3.467
same,"SIB Delta from baseline, Mean (unadjusted)","[1]; Week 13, Memantine Exposed Patients, FAS",−0.545
same,"SIB Delta from baseline, Mean (unadjusted)","[1]; Week 13, Memantine Treatment-Naïve Patients, FAS",4.500
same,"Treatment effect on SIB at 13/15 weeks from baseline (ANCOVA coefficient, 20 μg vs placebo)","[1]; Memantine Exposed, adjusted for Base SIB, MMSE-2",−0.620
same,"Treatment effect on SIB at 13/15 weeks from baseline (ANCOVA coefficient, 20 μg vs placebo)","[1]; Memantine Exposed, adjusted for Baseline SIB",−0.531
same,"Treatment effect on SIB at 13/15 weeks from baseline (ANCOVA coefficient, 20 μg vs placebo)","[1]; Memantine Naïve, adjusted for Base SIB, MMSE-2",5.923
same,"Treatment effect on SIB at 13/15 weeks from baseline (ANCOVA coefficient, 20 μg vs placebo)","[1]; Memantine Naïve, adjusted for Baseline SIB",5.426
same,SIB improvement (in words),"[1]; patients on memantine, week 13 or 15",no SIB improvement
same,Safety results,[2],more adverse events
same,"ADCS-ADL, subgroups with and without memantine as background SOC therapy (in words)",[3]; 20 μg,not significantly different above placebo
same,ADCS-ADL difference from placebo,"[3]; 20 μg, completers group",1.6
same,ADCS-ADL difference from placebo,"[3]; 20 μg, mITT group",1.4
same,ADCS-ADL efficacy (in words),[3]; 40 μg dose,significant for the 20 μg but not the 40 μg dose
